Measured values taken from US6864286B2, “Inhibitors of the EGF-receptor tyrosine kinase and methods for their use” (Parker Hughes Institute, priority 1998, dated 2005).

Assays:
JAK3 = molecular target: T1, JAK3 (Homo sapiens, UniProt P52333); assay: Cell-free JAK3 immune complex kinase assay; type: biochemical; conditions: for effect on enzymatic activity of JAK3: at concentrations as high as 350 μM
T1 construct: made in house; host or cells: Sf21 insect cells (baculovirus)
T1 sequence (P52333 1-1124): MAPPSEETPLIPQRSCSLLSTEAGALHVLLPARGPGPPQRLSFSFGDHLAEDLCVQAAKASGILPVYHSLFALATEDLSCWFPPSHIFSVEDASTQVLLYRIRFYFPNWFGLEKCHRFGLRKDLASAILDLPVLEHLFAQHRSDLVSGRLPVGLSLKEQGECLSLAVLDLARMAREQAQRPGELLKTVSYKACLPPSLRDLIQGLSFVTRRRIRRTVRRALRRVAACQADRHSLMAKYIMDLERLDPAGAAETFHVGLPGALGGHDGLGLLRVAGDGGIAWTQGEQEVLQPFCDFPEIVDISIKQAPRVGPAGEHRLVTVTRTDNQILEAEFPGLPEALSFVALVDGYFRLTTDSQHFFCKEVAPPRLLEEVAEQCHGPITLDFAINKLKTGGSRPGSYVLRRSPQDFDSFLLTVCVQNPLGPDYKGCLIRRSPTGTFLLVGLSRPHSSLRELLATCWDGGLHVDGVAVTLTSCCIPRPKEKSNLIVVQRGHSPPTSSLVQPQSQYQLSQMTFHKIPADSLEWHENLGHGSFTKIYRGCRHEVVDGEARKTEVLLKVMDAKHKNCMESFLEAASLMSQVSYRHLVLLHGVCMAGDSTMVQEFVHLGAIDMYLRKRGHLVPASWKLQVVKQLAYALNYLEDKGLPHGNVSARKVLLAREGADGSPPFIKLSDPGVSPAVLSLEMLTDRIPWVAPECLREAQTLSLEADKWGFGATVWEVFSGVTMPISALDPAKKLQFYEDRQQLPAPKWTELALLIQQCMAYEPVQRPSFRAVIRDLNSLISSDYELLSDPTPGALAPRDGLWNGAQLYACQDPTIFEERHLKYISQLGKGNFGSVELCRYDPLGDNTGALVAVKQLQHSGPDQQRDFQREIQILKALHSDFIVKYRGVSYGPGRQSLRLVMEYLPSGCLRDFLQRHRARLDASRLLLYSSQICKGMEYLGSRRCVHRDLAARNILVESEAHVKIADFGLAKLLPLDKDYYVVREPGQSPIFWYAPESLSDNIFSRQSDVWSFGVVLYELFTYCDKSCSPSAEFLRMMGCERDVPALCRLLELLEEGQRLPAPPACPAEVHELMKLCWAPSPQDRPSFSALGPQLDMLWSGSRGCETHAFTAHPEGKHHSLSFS
Description: Immunoprecipitations, immune-complex protein kinase assays, and immunoblotting using the ECL chemiluminescence detection system (Amersham Life Sciences) were conducted as described previously (Vassilev, A., et al. J. Biol. Chem. 1998, in press; Goodman, P. A., et al. J. Biol. Chem. 1998, 273, 17742; Mahajan, S., et al. Mol. Cell. Biol. 1995, 15, 5304; Uckun, F. M., et al. Science 1996, 22, 1096).

MDA-MB-361 cells = assay: In vitro clonogenic assay, MDA-MB-361; type: cell-based, human; conditions: 24 hour treatment; for inhibition at 0.1 µM / inhibition at 10 µM / inhibition at 100 µM: Homo sapiens
Description: In order to determine the cytotoxic activity of LFM and its analogs against breast cancer cells, cells in alpha-MEM supplemented with 10% (v/v) fetal calf serum were treated with various concentrations of the compounds for 24 hours at 37° C., washed twice in alpha-MEM, and then used in either MTT assays or in vitro invasion assays, as described hereinafter.
After treatment with LFM analogs, cells were resuspended in clonogenic medium consisting of alpha-MEM supplemented with 0.9% methylcellulose, 30% fetal bovine serum, and 50 μM 2-mercaptoethanol. Cells were plated in duplicate Petri dishes at 100,000 cells/mL/dish and cultured in a humidified 5% CO2 incubator for 7 days. Cancer cell colonies were enumerated on a grid using an inverted phase microscope of high optical resolution (Uckun F. M., et al. Clin. Cancer Res. 1998, 4, 901-912; and Kuo). Results were expressed as % inhibition of clonogenic cells at a particular concentration of the test agent using the formula: % Inhibition=(1-Mean # of colonies [Test]/Mean # of colonies [Control])×100. Furthermore, the dose survival curves were constructed using the percent control survival (=Mean # of colonies[Test]/Mean # of colonies [Control]×100) results for each drug concentration as the data points and the IC50 values were calculated. The IC50 values were determined using an Prism Version II Inplot program (Graphpad Software, Inc., San Diego, Calif.).

Row | effect on enzymatic activity of JAK3 (JAK3) | IC50 (JAK3; JAK3, cell-free, read-out: Inhibition IC50) [µM] | Compound | inhibition at 0.1 µM (MDA-MB-361 cells; MDA-MB-361, 0.1 μM) [%] | inhibition at 10 µM (MDA-MB-361 cells; MDA-MB-361, 10 μM) [%] | inhibition at 100 µM (MDA-MB-361 cells; MDA-MB-361, 100 μM) [%] | Tumor Cell Colonies/10^5 Cells (MDA-MB-361 cells; MDA-MB-361, 0.1 μM) | Tumor Cell Colonies/10^5 Cells (MDA-MB-361 cells; MDA-MB-361, 10 μM) | Tumor Cell Colonies/10^5 Cells (MDA-MB-361 cells; MDA-MB-361, 100 μM)
1 | did not affect the enzymatic activity |  | CC(O)=C(C#N)C(=O)Nc1ccc(C(F)(F)F)cc1 [LFM, α-Cyano-β-hydroxy-β-methyl-N-[4-(trifluoromethyl)phenyl]-propenamide, reference compound] | 27.3 | 51.5 | 82.3 | 803 | 535 | 196
2 | did not affect the enzymatic activity | > 350 | C/C(O)=C(\C#N)C(=O)Nc1ccc(OC(F)(F)F)cc1 [LFM-A12, α-Cyano-β-hydroxy-β-methyl-N-[4-(trifluoromethoxy)phenyl]-propenamide] | 32.4 | 60.2 | 87.3 | 746 | 440 | 140
